Assay results reported in the supplement of paper PMC10307832.

Assays:
Assay in all cases: relative viability (nuclei count vs DMSO), 5 days (fraction); higher = more cells survive
[1] = compound: C1=CC=C2C(=C1)N=C(S2)C(C#N)C3=NC(=NC=C3)NCCC4=CN=CC=C4 + Cc1cc(Nc2cc(N3CCN(C)CC3)nc(Sc3ccc(NC(=O)C4CC4)cc3)n2)n[nH]1 [Tozasertib] (partner 0.1 µM)
In short: (§1)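 After 5 days of treatment, lung cancer cells in 1536-well plates were fixed and stained in a single step (final 0.05% Triton X-100, 1% formaldehyde, 1 ug/ml Hoechst) and their nuclei counted on 4× images. Treatment had been applied by pin tool the day after seeding as one drug alone or as a fixed anchor-drug dose with five library-drug doses (not always all listed) in √10 steps. Relative viability is the nuclei count of treated wells divided by that of vehicle wells, and values are medians of duplicate plates.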

[2] = compound: COc1cc2/c(=N/c3ccc(Br)cc3F)nc[nH]c2cc1OCC1CCN(C)CC1 [Vandetanib] + CC(=O)Nc1cccc(-n2c(=O)n(C3CC3)c(=O)c3c(Nc4ccc(I)cc4F)n(C)c(=O)c(C)c32)c1 [Trametinib] (partner 0.02 µM)
In short: as §1

[3] = compound: C1=CC=C2C(=C1)N=C(S2)C(C#N)C3=NC(=NC=C3)NCCC4=CN=CC=C4 + Nc1ncn([C@H]2C[C@H](O)[C@@H](CO)O2)c(=O)n1 [Decitabine] (partner 2 µM)
In short: as §1

[4] = compound: COc1cc(N2CCC(N3CCN(C)CC3)CC2)ccc1Nc1ncc(Cl)c(Nc2ccccc2S(=O)(=O)C(C)C)n1 [NVP-TAE684] + Nc1ncn([C@H]2C[C@H](O)[C@@H](CO)O2)c(=O)n1 [Decitabine] (partner 2 µM)
In short: as §1

Row | Cell Line | relative viability ([1]; first compound 0.005 µM) | relative viability ([1]; first compound 0.01581 µM) | relative viability ([1]; first compound 0.05 µM) | relative viability ([1]; first compound 0.1581 µM) | relative viability ([1]; first compound 0.5 µM) | relative viability ([2]; first compound 0.02 µM) | relative viability ([2]; first compound 0.06325 µM) | relative viability ([2]; first compound 0.2 µM) | relative viability ([2]; first compound 0.6325 µM) | relative viability ([2]; first compound 2 µM) | relative viability ([3]; first compound 0.005 µM) | relative viability ([3]; first compound 0.01581 µM) | relative viability ([3]; first compound 0.05 µM) | relative viability ([3]; first compound 0.1581 µM) | relative viability ([3]; first compound 0.5 µM) | relative viability ([4]; first compound 0.2 µM) | relative viability ([4]; first compound 0.6325 µM) | relative viability ([4]; first compound 2 µM)
1 | NCI-H661 | 0.365 | 0.332 | 0.342 | 0.355 | 0.392 | 0.55 | 0.543 | 0.63 | 0.601 | 0.532 | 0.467 | 0.52 | 0.529 | 0.622 | 0.589 | 0.584 | 0.495 | 0.508
2 | EKVX | 0.481 | 0.468 | 0.429 | 0.498 | 0.336 | 0.37 | 0.289 | 0.281 | 0.294 | 0.212 | 0.152 | 0.286 | 0.309 | 0.329 | 0.23 | 0.317 | 0.354 | 0.325
3 | NCI-H1650 | 0.289 | 0.405 | 0.391 | 0.377 | 0.315 | 0.618 | 0.409 | 0.461 | 0.483 | 0.364 | 0.335 | 0.333 | 0.496 | 0.432 | 0.407 | 0.399 | 0.411 | 0.343
4 | HCC-827 | 0.366 | 0.425 | 0.424 | 0.438 | 0.394 | 0.568 | 0.457 | 0.501 | 0.266 | 0.16 | 0.318 | 0.322 | 0.319 | 0.399 | 0.328 | 0.301 | 0.279 | 0.311
5 | NCI-H2170 | 0.513 | 0.759 | 0.661 | 0.81 | 0.636 | 0.905 | 0.875 | 0.931 | 0.896 | 0.858 | 0.419 | 0.46 | 0.425 | 0.468 | 0.488 | 0.472 | 0.477 | 0.418
6 | NCI-H1395 | 0.684 | 0.69 | 0.755 | 0.713 | 0.756 | 1.06 | 1.01 | 0.956 | 1.13 | 1.05 | 0.721 | – | 0.732 | 0.769 | 0.742 | 0.682 | 0.712 | 0.616
7 | NCI-H2009 | 0.683 | 0.747 | 0.65 | 0.763 | 0.629 | 0.263 | 0.252 | 0.286 | 0.282 | 0.275 | 0.37 | 0.386 | 0.379 | 0.427 | 0.397 | 0.372 | 0.34 | 0.345
8 | NCI-H1437 | 0.355 | 0.389 | 0.414 | 0.401 | 0.325 | 0.592 | 0.466 | 0.557 | 0.432 | 0.517 | 0.484 | 0.6 | 0.508 | 0.602 | 0.548 | 0.596 | 0.548 | 0.474
9 | NCI-H2087 | 0.201 | 0.229 | 0.234 | 0.199 | 0.211 | 0.211 | 0.221 | 0.23 | 0.213 | 0.2 | 0.255 | 0.266 | 0.345 | 0.367 | 0.282 | 0.305 | 0.261 | 0.192
10 | LCLC-103H | 0.49 | 0.492 | 0.525 | 0.558 | 0.478 | 0.665 | 0.606 | 0.638 | 0.677 | 0.695 | 0.723 | 0.731 | 0.69 | 0.762 | 0.751 | 0.7 | 0.69 | 0.683
11 | PC-14 | 0.573 | 0.667 | 0.554 | 0.631 | 0.45 | 0.725 | 0.51 | 0.071 | 0.109 | 0.0866 | 0.207 | 0.246 | 0.178 | 0.203 | 0.179 | 0.217 | 0.191 | 0.0633
12 | H3255 | 0.685 | 0.609 | 0.702 | 0.089 | 0.9 | 0.614 | 0.577 | 0.604 | 0.463 | 0.245 | 0.574 | 0.561 | 0.561 | 0.639 | 0.726 | 0.582 | 0.547 | 0.506
13 | NCI-H2342 | 0.403 | 0.522 | 0.499 | 0.47 | 0.456 | 0.823 | 0.826 | 0.869 | 0.851 | 0.809 | 0.727 | 0.844 | 0.694 | 0.837 | 0.71 | 0.727 | 0.835 | 0.632
14 | NCI-H460 | 0.396 | 0.282 | 0.302 | 0.204 | 0.0413 | 0.141 | 0.147 | 0.157 | 0.148 | 0.123 | – | 0.612 | 0.529 | 0.592 | 0.464 | 0.535 | 0.51 | 0.294
15 | HOP-62 | 0.291 | 0.42 | 0.398 | 0.366 | 0.372 | 0.354 | 0.368 | 0.36 | 0.4 | 0.363 | 0.219 | 0.184 | 0.263 | 0.234 | 0.248 | 0.242 | 0.236 | 0.266
16 | HCC-78 | 0.423 | 0.503 | 0.472 | 0.552 | 0.261 | 0.73 | 0.814 | 0.684 | 0.809 | 0.525 | 0.776 | 0.779 | 0.634 | 0.825 | 0.747 | 0.636 | 0.634 | 0.49
17 | NCI-H2085 | 0.826 | 0.821 | 0.744 | 0.813 | 0.566 | 0.549 | 0.499 | 0.5 | 0.593 | 0.484 | 0.518 | 0.555 | 0.585 | 0.502 | 0.533 | 0.533 | 0.458 | 0.458
18 | COR-L23 | 0.179 | 0.169 | 0.175 | 0.167 | 0.149 | 0.619 | 0.517 | 0.695 | 0.71 | 0.641 | 0.439 | 0.45 | 0.415 | 0.472 | 0.424 | 0.415 | 0.339 | 0.252
